Structures can show the parent of a compound that is named as a salt.
Legend:
[1] = biological target: T1, LPL (lipoprotein lipase) (Mus musculus, UniProt P11152); assay: Confirmation test of LPL activation effect in mouse skeletal muscle cells (C2C12 cells); format: cell-based; conditions: 8 hours exposure, vs control group
T1 construct: endogenous in cells; host or cells: C2C12 cells, differentiated
T1 sequence (P11152 28-474): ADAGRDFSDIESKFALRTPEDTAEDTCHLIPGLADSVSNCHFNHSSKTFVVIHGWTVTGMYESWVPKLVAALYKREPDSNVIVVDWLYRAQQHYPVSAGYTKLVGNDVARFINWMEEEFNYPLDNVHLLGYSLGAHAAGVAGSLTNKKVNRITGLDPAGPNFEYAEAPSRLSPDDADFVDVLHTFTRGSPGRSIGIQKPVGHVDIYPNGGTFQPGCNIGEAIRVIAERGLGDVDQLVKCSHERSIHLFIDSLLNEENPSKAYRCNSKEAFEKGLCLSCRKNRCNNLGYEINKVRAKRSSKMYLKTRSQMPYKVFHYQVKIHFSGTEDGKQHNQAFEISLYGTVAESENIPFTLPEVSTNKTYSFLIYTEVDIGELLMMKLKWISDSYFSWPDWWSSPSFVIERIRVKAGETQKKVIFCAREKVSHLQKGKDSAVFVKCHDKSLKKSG
Description: Human skeletal muscle cells (human skeletal muscle myoblasts) or mouse skeletal muscle cells (C2C12 cells) that were seeded onto plates, cultured, and differentiated were exposed to a 0.3% dimethyl sulfoxide-containing culture medium in which the compound of the present invention was dissolved (concentration: 10 μM or 30 μM). The medium was removed 8 hours after exposure, 10 mM of Tris-HCl buffer (150 mM NaCl, 10 μ/mL; containing heparin sodium) was added to the cells, and the cells were incubated at 37° C. in the presence of 5% CO2 for 10 minutes. LPL activity in the supernatant was measured using an LPL activity assay kit (made by Roar Biomedical Inc.). LPL activity was evaluated based on the increase in fluorescence intensity 10 to 70 minutes after mixing the supernatant with the LPL substrate. The mean value of the increase in fluorescence intensity of the cells exposed to a 0.3% dimethyl sulfoxide-containing culture medium […] was used as mean value of the control group. Note that the compounds of Examples 18, 19, 32, 45 and 57 were tested using human skeletal muscle cells, and other compounds were tested using mouse skeletal muscle cells. The rate of increase (%) was calculated from the measured values of LPL activity in the control group and the experimental group, according to the following formula. Rate of increase in LPL activity (%)=[(mean value of the experimental group)−(mean value of the control group)]/(mean value of the control group)×100

melting point [°C] | Rate of increase in LPL activity ([1]; amount of addition 10 μM) [%] | Rate of increase in LPL activity ([1]; amount of addition 30 μM) [%] | SMILES
256 to 258 |  |  | COc1cccc(-c2nc(-c3ccc(OCc4ccc(Cl)cc4)cc3OC)c[nH]2)c1.Cl
217 to 220 |  |  | COc1cc(OCc2ccc(Cl)cc2)ccc1-c1c[nH]c(-c2cccc(C)c2)n1.Cl
243 to 246 |  |  | COc1cc(OCc2ccc(C#N)cc2)ccc1-c1c[nH]c(-c2cccc(C)c2)n1.Cl
> 250 |  |  | COc1cc(OCc2ccc(C#N)cc2)ccc1-c1c[nH]c(-c2cc(Cl)cc(Cl)c2)n1.Cl
194 to 196 |  |  | COc1cc(OCc2ccccc2)ccc1-c1c[nH]c(-c2cccc(C)c2)n1.Cl
251 to 255 |  |  | COc1cc(OCc2ccc(Cl)cc2F)ccc1-c1c[nH]c(-c2ccc(F)c(F)c2)n1.Cl
254 to 258 |  |  | COc1cc(OCc2ccc(Cl)cc2F)ccc1-c1c[nH]c(-c2ccc(Cl)c(Cl)c2)n1.Cl
139 to 142 |  |  | COc1cc(OCc2ccccc2)ccc1-c1c[nH]c(-c2cccs2)n1.Cl
211 to 213 |  |  | CCOC(=O)c1ccc(-c2nc(-c3ccc(OCc4ccccc4)c(OC)c3)c[nH]2)cc1.Cl
241 to 243 |  |  | COc1cc(-c2c[nH]c(-c3ccc(C(=O)O)cc3)n2)ccc1OCc1ccccc1.Cl
244 to 247 |  |  | COc1cc(-c2c[nH]c(-c3cccc(F)c3)n2)ccc1OCc1ccc(Br)cc1F.Cl
240 to 245 |  |  | COc1cc(OCc2ccc(Br)cc2F)ccc1-c1c[nH]c(-c2cccc(F)c2)n1.Cl
241 to 244 |  |  | COc1cc(OCc2ccc(Cl)cc2)ccc1-c1c[nH]c(-c2ccc(C)cc2)n1.Cl
174 to 175 |  |  | COc1cc(-c2c[nH]c(-c3ccc(C(F)(F)F)cc3)n2)ccc1OCc1ccc(Br)cc1F (as salt: hydrochloride) [Example 1, 4-[4-(4-bromo-2-fluorobenzyloxy)-3-methoxyphenyl]-2-[4-(trifluoromethyl)phenyl]-1H-imidazole hydrochloride]
 | 64 | 360 | COc1cc(-c2c[nH]c(-c3ccc(C(F)(F)F)cc3)n2)ccc1OCc1ccc(Br)cc1F [Example 1, 4-[4-(4-bromo-2-fluorobenzyloxy)-3-methoxyphenyl]-2-[4-(trifluoromethyl)phenyl]-1H-imidazole hydrochloride]
87 to 89 | 13 | 38 | COc1cc(-c2c[nH]c(-c3ccccc3)n2)ccc1OCc1ccc(Cl)cc1 [Example 2]
224 to 226 | 43 | 62 | COc1cc(-c2c[nH]c(-c3ccccc3)n2)ccc1OCc1ccc(Br)cc1F.Cl [Example 3]
228 to 229 | 31 | 45 | COc1cc(-c2c[nH]c(-c3ccc(Cl)cc3)n2)ccc1OCc1ccccc1 [Example 4]
244 to 245 | 14 | 42 | COc1cc(-c2c[nH]c(-c3ccc(C)cc3)n2)ccc1OCc1ccccc1.Cl [Example 5]

melting point [°C] | Rate of increase in LPL activity ([1]; amount of addition 10 μM) [%] | Rate of increase in LPL activity ([1]; amount of addition 30 μM) [%] | SMILES
138 to 139 |  |  | COc1cc(-c2cn(C)c(-c3ccc(C(F)(F)F)cc3)n2)ccc1OCc1ccccc1 [Example 6]
229 to 230 | 69 | 197 | COc1cc(OCc2ccccc2)ccc1-c1c[nH]c(-c2ccccc2)n1.Cl [Example 7]
146 to 147 |  |  | COc1cc(-c2cn(C)c(-c3ccccc3)n2)ccc1OCc1ccccc1 [Example 8]
244 to 246 | 46 | 275 | COc1cc(OCc2ccc(Cl)cc2)ccc1-c1c[nH]c(-c2ccccc2)n1.Cl [Example 10]
239 to 240 | 96 | 231 | COc1cc(OCc2ccc(Br)cc2F)ccc1-c1c[nH]c(-c2ccccc2)n1.Cl [Example 11]
99 to 103 |  |  | COc1cc(OCc2ccc(C#N)cc2)ccc1-c1c[nH]c(-c2ccccc2)n1 [Example 12]
231 to 232 | 46 | 234 | COc1cc(OCc2ccccc2)ccc1-c1c[nH]c(-c2ccc(C(F)(F)F)cc2)n1 [Example 13]
178 to 181 |  |  | COc1cc(-c2cnc(-c3cccs3)[nH]2)ccc1OCc1ccccc1 [Example 14]
250 to 251 | 79 | 97 | COc1cc(-c2c[nH]c(-c3cc(Cl)cc(Cl)c3)n2)ccc1OCc1ccccc1 [Example 15]
193 to 196 |  |  | COc1cc(OCc2ccc(C#N)cc2)ccc1-c1c[nH]c(-c2cccs2)n1 [Example 21]
107 to 109 |  |  | COc1cc(OCc2ccc(Cl)cc2)ccc1-c1c[nH]c(-c2cccs2)n1 [Example 22]
132 to 135 |  |  | COc1cc(-c2c[nH]c(-c3ccsc3)n2)ccc1OCc1ccccc1 [Example 25]
146 to 148 |  |  | COc1ccc(-c2nc(-c3ccc(OCc4ccccc4)c(OC)c3)c[nH]2)cc1 [Example 27]
148 to 152 |  |  | COc1cc(-c2c[nH]c(C(C)C)n2)ccc1OCc1ccccc1 [Example 29]
160 to 165 |  |  | COc1cc(-c2nc(-c3ccc(C(F)(F)F)cc3)[nH]c2C)ccc1OCc1ccccc1 [Example 34]
126 to 128 |  |  | COc1cc(-c2c[nH]c(C(C)C)n2)ccc1OCc1ccc(Cl)cc1 [Example 35]
159 to 163 |  |  | COc1cc(-c2c[nH]c(C)n2)ccc1OCc1ccccc1 [Example 40]
197 to 198 |  |  | COc1cc(-c2c[nH]c(-c3ccc(C(F)(F)F)cc3)n2)ccc1O [Example 41]
116 to 123 |  |  | COc1cc(-c2c[nH]c(-c3ccc(F)cc3)n2)ccc1O [Example 44]

melting point [°C] | Rate of increase in LPL activity ([1]; amount of addition 10 μM) [%] | Rate of increase in LPL activity ([1]; amount of addition 30 μM) [%] | SMILES
257 to 260 |  |  | COc1cc(OCc2ccc(C#N)cc2)ccc1-c1c[nH]c(-c2cccc(F)c2)n1 [Example 60]
193 to 196 |  |  | COc1cc(-c2c[nH]c(-c3ccccc3)n2)ccc1OCc1ccc(C#N)cc1 [Example 63]
192 to 193 |  |  | COc1cc(-c2c[nH]c(-c3cccs3)n2)ccc1OCc1ccc(C#N)cc1 [Example 64]
263 to 265 |  |  | COc1cc(OCc2ccc(Br)cc2F)ccc1-c1c[nH]c(-c2ccc(F)c(F)c2)n1 [Example 89]
120 to 123 |  |  | COc1cc(OCc2ccc(Br)cc2F)ccc1-c1c[nH]c(-c2cccc(C)c2)n1 [Example 95]
232 to 235 |  |  | COc1cc(O)ccc1-c1c[nH]c(-c2ccccc2)n1 [Example 105]
> 250 |  |  | COc1cc(O)ccc1-c1c[nH]c(-c2ccc(C(F)(F)F)cc2)n1 [Example 106]
> 250 |  |  | COc1cc(O)ccc1-c1c[nH]c(-c2ccc(F)cc2)n1 [Example 107]
260 to 262 |  |  | COc1cc(O)ccc1-c1c[nH]c(-c2ccc(C)cc2)n1 [Example 108]
142 to 145 |  |  | COc1cc(OCc2ccccc2)ccc1-c1c[nH]c(-c2cccc(Cl)c2)n1 [Example 122]
161 to 163 |  |  | COc1cc(OCc2ccccc2)ccc1-c1c[nH]c(-c2cc(Cl)cc(Cl)c2)n1 [Example 125]
227 to 229 |  |  | COc1cc(OCc2ccccc2)ccc1-c1c[nH]c(-c2ccc(C(C)(C)C)cc2)n1 [Example 129]
191 to 194 |  |  | COc1cc(OCc2ccc(Cl)cc2F)ccc1-c1c[nH]c(-c2ccc(Cl)cc2)n1 [Example 131]
115 to 120 |  |  | COc1cc(OCc2ccc(Cl)cc2F)ccc1-c1c[nH]c(-c2cccc(C)c2)n1 [Example 135]
152 to 155 |  |  | COc1cc(OCc2ccc(Cl)cc2F)ccc1-c1c[nH]c(-c2ccc(C)cc2)n1 [Example 136]
 | 4 | 228 | COc1cc(-c2c[nH]c(-c3ccc(F)cc3)n2)ccc1OCc1ccc(C(F)(F)F)cc1 [Example 164]
 | 38 | 476 | COc1cc(-c2c[nH]c(-c3ccc(C(F)(F)F)cc3)n2)ccc1OCc1ccc(C(F)(F)F)cc1 [Example 165]
 | 37 | 104 | COc1cc(OCc2ccc(C(F)(F)F)cc2)ccc1-c1c[nH]c(-c2ccc(C(F)(F)F)cc2)n1 [Example 167]
